Experiments:
Format in all cases: cell-based, human
PARP-1 = PARP-1 poly-ADP-ribosylation activity in CC cells (WB); settings: co-treatment with 0260
Experimental: (§1) WB analyses were carried out as previously described before. In brief, cells were lysed in RIPA buffer mixed with protease inhibitors and separated on SDS-PAGE gel, transferred to PVDF membrane treated with 5% skim milk to exclude non-specific background and incubated with a primary antibody over-night. The membrane was incubated for 1 h with a secondary antibody conjugated to Horseradish Peroxidase (HRP). The protein-antibody complex was visualized using the SuperSignal West Pico Chemiluminescent Substrate (Thermo scientific, USA).

SW620 CC cells = test: MultiTox-Fluor cytotoxicity assay in SW620 CC cells
Experimental: Cell lines (HCT116, ht29, Rko, Hep3B, SW48, SW620, MDA-MB-231, PANC-1, su.86.86, Hfb) were obtained from the American Type Culture Collection (ATCC). Cell type authentication was carried out by microscope and DNA profiles using short tandem repeat analysis. Cells were grown in Minimum Essential Medium (MEM) containing 10% heat-inactivated Fetal Bovine Serum (FBS) or in Dulbecco's Modified Eagle's Medium (DMEM) containing 10% FBS, where specified, at 37° C. with 5% CO2. In general, the in-vitro experiments were carried out with 2. μM 0260 added into the growth medium. Dose response experiments included increasing 0260 concentrations. Cell death levels were determined using the MultiTox-Fluor Multiplex Cytotoxicity Assay (G9201, Promega, USA). In brief, 10,000 cells were seeded in black bottom 96 wells plate and were allowed to attach to the plate bottom for 16 h before the administration of various 0260 concentration in each well. Cell death levels were determined according to the manufacturer's protocol.
Cells death level was determined using the MultiTox-Fluor Multiplex Cytotoxicity Assay (G9201, Promega, USA) according to the manufacturer's protocol.

CC cells = test: Autophagy in CC cells (TEM, LC3 immuno-staining, WB); settings: co-treatment with 0260
Experimental: as §1
Cells were fixed with 4% paraformaldehyde (30 min) and incubated with Permeabilization Solution containing 0.1% Triton X-100 (Sigma-Aldrich, Israel) in PBS at room temperature for 1 h. Nonspecific binding was blocked with PBS containing 10% fetal bovine serum for 1 h at room temperature. Cells were incubated with specific antibodies diluted 1:100 overnight at 4° C. Cells were washed (5 min) in PBS containing 0.2% Tween-20 (Sigma-Aldrich, Israel) to remove non-specific binding. Bound primary antibodies were detected by Alexa Fluor® 488 goat anti-mouse IgG antibody or Alexa Fluor® 594 goat anti-rabbit IgG antibody (Molecular Probes, Invitrogen, U.K.). Nuclei were visualized by incubation with Hoechst 33342 solution for 10 min (1:500). Nonspecific staining, as determined by binding to the secondary antibody only, was negligible. The immunostained slides were examined under the fluorescence microscope AxioimagerZ1 (Zeiss, Germany) or confocal fluorescence microscope (Olympus-FV1000).
Cells were grown in MEM or DMEM, washed twice with PBS and fixed for 5 minutes in Karnovsky fixative (2.5% glutaraldehyde, 2.5% paraformaldehyde in cacodylate buffer pH 7.4) on the tissue culture plate. Cells were then harvested, and transferred to 1.5 ml tube for further 1 h fixation at room temperature. The cells were then stored O.N at 4C° after which the samples were washed in 0.1 M cacodylate buffer and post-fixed with 1% OsO4 in 0.1 M sodium cacodylate buffer (Sigma-Aldrich, Israel) for 1 h. […]

[1] = system: malignant cells (CC and MDA cells); test: Cellular ATP level (HPLC) in malignant cells; settings: SW620, co-treatment with 0260
Experimental: Quantification of intracellular ATP was carried out using HPLC as previously described.
Cells were suspended in 400 μl cold 0.4M perchloric acid solution, incubated on ice for 15 min, centrifuged at 12,000×g, neutralized with 4M K2CO3 to pH 7.5, incubated for 15 min on ice and concentrated (10,000×g). Chromatographic analyses were performed using Hitachi Elite LaChrom system at 30° C. applying supernatants to SUPELCOSIL™ LC-18-S HPLC Column (5 μm particle size, L×I.D. 25 cm×2.1 mm), flow rate 0.2 mL/min under isocratic elution conditions (50 mM potassium phosphate, 100 mM triethylamine, pH 6.5 (adjusted with phosphoric acid)):Acetonitrile (98.5:1.5)). Each analysis cycle was set to 30 min, chromatographic flow was monitored at 260 nm and integrated using EZChrom Elite Software.

Row | Structure (SMILES) | 0260-induced poly-ADP-ribosylation activity with PARP-1 inhibitor (PARP-1) | decrease of 0260-induced death (SW620 CC cells; CC cells, co-treatment with 0260) | induced autophagy with PARP-1 inhibition (LC3II to LC3 I ratio) (CC cells) | death levels of 0260 treated cells with autophagy inhibitor (SW620 CC cells; SW620, co-treatment with 0260) | ATP level in 0260 treated cells with autophagy inhibitor [1]
1 | NC(=O)c1cccc(N)c1 [3AB, 3-Aminobenzamide, reference compound] | abolished | 50% | decreased LC3II to LC3 I ratio | – | –
2 | Cn1cnc(N)c2ncnc1-2 [3-MA, 3-Methyladenine, reference compound] | – | – | – | reduced death levels | almost completely restored the ATP level

From patent US20180071280A1, “MODULATORS OF CELL DEATH PROCESSES” (URIFER LTD., priority 2015, published 2018)
